Counter-ions that a name gives are not always drawn.
Assays:
[1] = system: constitutive active colorectal cancer cell (CRC) Wnt pathway; experiment: HCT116 TOPFlash cellular reporter assay (Super TopFlash luciferase), constitutive active Wnt pathway; format: cell-based; conditions: HCT116 TOP reporter cells, 36 hours incubation, luciferase expression
Experimental: In order to discover and characterize small molecules which inhibit the constitutive active colorectal cancer cell (CRC) Wnt pathway, a cellular reporter assay was employed. […] Stable transfectants were generated by cotransfection with pcDNA3 and selection of stable transfected cells with 1 mg/ml G418.

[2] = system: HCT116 FOP control reporter cell line; experiment: HCT116 FOPFlash control reporter assay (FOP control vector, non-functional TCF elements); format: cell-based; conditions: HCT116 FOP control reporter cells, 36 hours incubation, luciferase expression
From the text: In a parallel approach, HCT116 cells were cotransfected with the FOP control vector and pcDNA3. The FOP vector is identical to the TOP construct, but it contains instead of functional TCF elements a randomized, non-functional sequence. For this transfection a stable transfected cell line was generated as well.

In the case of `CC(C(=O)Nc1cc(C(=O)Nc2ccc(-c3cc(F)cc(F)c3)nc2)ccc1OC(F)(F)F)N1C[C@@H]2C[C@H]1CO2` (relative stereo) [Example 180, N-[6-(3,5-difluorophenyl)pyridin-3-yl]-3-({(2R*)-2-[(1S,4S)-2-oxa-5-azabicyclo[2.2.1]hept-5-yl]propanoyl}amino)-4-(trifluoromethoxy)benzamide], the IC50 [1] is reported as 0.148 µM and the IC50 [2] is reported as 9.8 µM.

For `CC(C(=O)Nc1cc(C(=O)Nc2ccc(-c3cc(F)cc(F)c3)nc2)ccc1OC(F)(F)F)N1C[C@@H]2C[C@H]1CO2` (relative stereo) [Example 181, N-[6-(3,5-difluorophenyl)pyridin-3-yl]-3-({(2S*)-2-[(1S,4S)-2-oxa-5-azabicyclo[2.2.1]hept-5-yl]propanoyl}amino)-4-(trifluoromethoxy)benzamide], the IC50 [1] was 0.053 µM and the IC50 [2] was ≥ 50 µM.

With `CC(C(=O)Nc1cc(NC(=O)c2ccc(-c3cc(F)cc(F)c3)nc2)ccc1OC(F)(F)F)N1C[C@@H]2C[C@H]1CO2` (relative stereo) [Example 185, 6-(3,5-difluorophenyl)-N-[3-({(2R*)-2-[(1S,4S)-2-oxa-5-azabicyclo[2.2.1]hept-5-yl]propanoyl}amino)-4-(trifluoromethoxy)phenyl] nicotinamide] the IC50 [1] was 0.16 µM and the IC50 [2] was 10 µM.

Molecule `CC(C(=O)Nc1cc(NC(=O)c2ccc(-c3cccc(F)c3)nc2)ccc1OC(F)(F)F)N1C[C@@H]2C[C@H]1CO2` (relative stereo) [Example 193, 6-(3-fluorophenyl)-N-[3-({(2R*)-2-[(1S,4S)-2-oxa-5-azabicyclo[2.2.1]hept-5-yl]propanoyl}amino)-4-(trifluoromethoxy)phenyl] nicotinamide] has an IC50 ([1]; Homo sapiens, HCT-116, 36 h) of 0.148 µM and an IC50 ([2]; Homo sapiens, HCT-116, 36 h) of 8.8 µM.

In the case of `CC(C(=O)Nc1cc(NC(=O)c2ccc(-c3cc(F)cc(F)c3)nc2)ccc1OC(F)(F)F)N1C[C@@H]2C[C@H]1CO2` (relative stereo) [Example 217, 6-(3,5-difluorophenyl)-N-[3-({(2S*)-2-[(1S,4S)-2-oxa-5-azabicyclo[2.2.1]hept-5-yl]propanoyl}amino)-4-(trifluoromethoxy)phenyl] nicotinamide], the IC50 [1] is reported as 0.438 µM and the IC50 [2] is reported as ≥ 50 µM.

In the case of `CC(C(=O)Nc1cc(NC(=O)c2ccc(-c3cccc(F)c3)nc2)ccc1OC(F)(F)F)N1C[C@@H]2C[C@H]1CO2` (relative stereo) [Example 222, 6-(3-fluorophenyl)-N-[3-({(2S*)-2-[(1S,4S)-2-oxa-5-azabicyclo[2.2.1]hept-5-yl]propanoyl}amino)-4-(trifluoromethoxy)phenyl] nicotinamide], the IC50 [1] is reported as 0.263 µM and the IC50 [2] is reported as 15.2 µM.

`CC(C(=O)Nc1cc(C(=O)Nc2ccc(-c3cccc(F)c3)nc2)ccc1OC(F)(F)F)N1C[C@@H]2C[C@H]1CO2` (relative stereo) [Example 243, N-[6-(3-fluorophenyl)pyridin-3-yl]-3-({(2R*)-2-[(1S,4S)-2-oxa-5-azabicyclo[2.2.1]hept-5-yl]propanoyl}amino)-4-(trifluoromethoxy)benzamide] was tested, and the IC50 [1] was 0.028 µM and the IC50 [2] was 7.7 µM.

In the case of `CC(C(=O)Nc1cc(C(=O)Nc2ccc(-c3cccc(F)c3)nc2)ccc1OC(F)(F)F)N1C[C@@H]2C[C@H]1CO2` (relative stereo) [Example 244, N-[6-(3-fluorophenyl)pyridin-3-yl]-3-({(2S*)-2-[(1S,4S)-2-oxa-5-azabicyclo[2.2.1]hept-5-yl]propanoyl}amino)-4-(trifluoromethoxy)benzamide], the IC50 [1] is reported as 0.12 µM and the IC50 [2] is reported as ≥ 50 µM.

With `C[C@@H](C(=O)Nc1cc(C(=O)Nc2ccc(-c3ccc(N(C)C)cc3)nc2)ccc1OC(F)(F)F)N1CCOCC1` (single isomer, unassigned) [Example 116, N-{6-[4-(dimethylamino)phenyl]pyridin-3-yl}-3-{[(2S)-2-(morpholin-4-yl)propanoyl]amino}-4-(trifluoromethoxy)benzamide or N-{6-[4-(dimethylamino)phenyl]pyridin-3-yl}-3-{[(2R)-2-(morpholin-4-yl)propanoyl]amino}-4-(trifluoromethoxy)benzamide] the IC50 [1] was 0.084 µM and the IC50 [2] was 8.1 µM.

For `C[C@@H](C(=O)Nc1cc(C(=O)Nc2ccc(-c3ccc(N)cc3)nc2)ccc1OC(F)(F)F)N1CCOCC1` (single isomer, unassigned) [Example 118, N-[6-(4-aminophenyl)pyridin-3-yl]-3-{[(2R)-2-(morpholin-4-yl)propanoyl]amino}-4-(trifluoromethoxy)benzamide or N-[6-(4-aminophenyl)pyridin-3-yl]-3-{[(2S)-2-(morpholin-4-yl)propanoyl]amino}-4-(trifluoromethoxy)benzamide], the IC50 [2] was ≥ 50 µM.

`C[C@@H](C(=O)Nc1cc(C(=O)Nc2ccc(-c3ccc(CO)cc3)nc2)ccc1OC(F)(F)F)N1CCOCC1` (single isomer, unassigned) [Example 119, N-{6-[4-(hydroxymethyl)phenyl]pyridin-3-yl}-3-{[(2S)-2-(morpholin-4-yl)propanoyl]amino}-4-(trifluoromethoxy)benzamide or N-{6-[4-(hydroxymethyl)phenyl]pyridin-3-yl}-3-{[(2R)-2-(morpholin-4-yl)propanoyl]amino}-4-(trifluoromethoxy)benzamide] was tested, and the IC50 [1] was 0.65 µM and the IC50 [2] was ≥ 50 µM.

With `C[C@@H](C(=O)Nc1cc(C(=O)Nc2ccc(-c3ccc(CO)cc3)nc2)ccc1OC(F)(F)F)N1CCOCC1` (single isomer, unassigned) [Example 120, N-{6-[4-(hydroxymethyl)phenyl]pyridin-3-yl}-3-{[(2S)-2-(morpholin-4-yl)propanoyl]amino}-4-(trifluoromethoxy)benzamide or N-{6-[4-(hydroxymethyl)phenyl]pyridin-3-yl}-3-{[(2R)-2-(morpholin-4-yl)propanoyl]amino}-4-(trifluoromethoxy)benzamide] the IC50 [1] was 0.105 µM and the IC50 [2] was ≥ 50 µM.

In the case of `COc1ccc(C(=O)Nc2ccc(-c3ccccc3F)nc2)cc1NC(=O)CN1C[C@@H]2C[C@H]1CO2` [Example 3, N-[6-(2-fluorophenyl)pyridin-3-yl]-4-methoxy-3-{[(1S,4S)-2-oxa-5-azabicyclo[2.2.1]hept-5-ylacetyl]amino}benzamide], the IC50 ([1]; Homo sapiens, HCT-116, 36 h) is reported as 1.8 µM and the IC50 ([2]; Homo sapiens, HCT-116, 36 h) is reported as ≥ 50 µM.

With `COc1ccc(C(=O)Nc2ccc(-c3ccccc3)nc2)cc1NC(=O)CN1CCOCC1` [Example 4, 4-methoxy-3-[(morpholin-4-ylacetyl)amino]-N-(6-phenylpyridin-3-yl)benzamide] the IC50 ([1]; Homo sapiens, HCT-116, 36 h) was 0.3 µM and the IC50 ([2]; Homo sapiens, HCT-116, 36 h) was ≥ 50 µM.

In the case of `O=C(CN1CCOCC1)Nc1cc(C(=O)Nc2ccc(-c3ccccc3F)nc2)ccc1OC(F)(F)F` [Example 5, N-[6-(2-fluorophenyl)pyridin-3-yl]-3-[(morpholin-4-ylacetyl)amino]-4-(trifluoromethoxy)benzamide], the IC50 ([1]; Homo sapiens, HCT-116, 36 h) is reported as 0.0403 µM and the IC50 ([2]; Homo sapiens, HCT-116, 36 h) is reported as ≥ 50 µM.

For `O=C(CN1CCOCC1)Nc1cc(C(=O)Nc2ncc(-c3ccccc3)s2)ccc1C(F)(F)F` [Example 12, 3-[(morpholin-4-ylacetyl)amino]-N-(5-phenyl-1,3-thiazol-2-yl)-4-(trifluoromethyl)benzamide], the IC50 ([1]; Homo sapiens, HCT-116, 36 h) was 0.53 µM and the IC50 ([2]; Homo sapiens, HCT-116, 36 h) was ≥ 50 µM.

With `O=C(CN1CCOCC1)Nc1cc(C(=O)Nc2ccc(-c3ccccc3)nc2)ccc1C(F)(F)F` [Example 13, 3-[(morpholin-4-ylacetyl)amino]-N-(6-phenylpyridin-3-yl)-4-(trifluoromethyl)benzamide] the IC50 ([1]; Homo sapiens, HCT-116, 36 h) was 0.362 µM and the IC50 ([2]; Homo sapiens, HCT-116, 36 h) was ≥ 50 µM.

Molecule `CC(C)(C)c1ccc(NC(=O)c2ccc(-c3ccccc3)nc2)cc1NC(=O)CN1CCOCC1` [Example 18, N-{4-tert-butyl-3-[(morpholin-4-ylacetyl)amino]phenyl}-6-phenylnicotinamide] has an IC50 ([1]; Homo sapiens, HCT-116, 36 h) of 0.444 µM and an IC50 ([2]; Homo sapiens, HCT-116, 36 h) of 9.9 µM.

For `COc1ccc(NC(=O)c2ncc(-c3ccccc3)s2)cc1NC(=O)CN1CCOCC1` [Example 23, N-{4-methoxy-3-[(morpholin-4-ylacetyl)amino]phenyl}-5-phenyl-1,3-thiazole-2-carboxamide], the IC50 ([1]; Homo sapiens, HCT-116, 36 h) was 0.098 µM and the IC50 ([2]; Homo sapiens, HCT-116, 36 h) was ≥ 50 µM.

With `COc1ccc(NC(=O)c2ccc(-c3ccccc3)[nH]2)cc1NC(=O)CN1CCOCC1` [Example 24, N-{4-methoxy-3-[(morpholin-4-ylacetyl)amino]phenyl}-5-phenyl-1H-pyrrole-2-carboxamide] the IC50 ([2]; Homo sapiens, HCT-116, 36 h) was ≥ 50 µM.

With `O=C(CN1CCOCC1)Nc1cc(NC(=O)c2ccc(-c3c(F)cccc3F)nc2)ccc1OC(F)(F)F` [Example 29, 6-(2,6-difluorophenyl)-N-{3-[(morpholin-4-ylacetyl)amino]-4-(trifluoromethoxy)phenyl}nicotinamide] the IC50 ([1]; Homo sapiens, HCT-116, 36 h) was 0.156 µM and the IC50 ([2]; Homo sapiens, HCT-116, 36 h) was ≥ 50 µM.

`COc1ccc(NC(=O)c2ccc(-c3ccccc3F)nc2)cc1NC(=O)CN1CCOCC1` [Example 31, 6-(2-fluorophenyl)-N-{4-methoxy-3-[(morpholin-4-ylacetyl)amino]phenyl}nicotinamide] was tested, and the IC50 ([1]; Homo sapiens, HCT-116, 36 h) was 0.805 µM and the IC50 ([2]; Homo sapiens, HCT-116, 36 h) was 36 µM.

In the case of `O=C(CN1CCOCC1)Nc1cc(NC(=O)c2cc(-c3ccccc3)[nH]n2)ccc1OC(F)(F)F` [Example 124, N-{3-[(morpholin-4-ylacetyl)amino]-4-(trifluoromethoxy)phenyl}-5-phenyl-1H-pyrazole-3-carboxamide], the IC50 ([2]; Homo sapiens, HCT-116, 36 h) is reported as ≥ 50 µM.

For `CC(C(=O)Nc1cc(C(=O)Nc2nnc(-c3ccccc3)s2)ccc1CS(C)(=O)=O)N1CCN(C)CC1` (stereo not drawn) [Example 230, 3-{[2-(4-methylpiperazin-1-yl)propanoyl]amino}-4-[(methylsulfonyl)methyl]-N-(5-phenyl-1,3,4-thiadiazol-2-yl)benzamide trifluoroacetate (1:1)], the IC50 ([1]; Homo sapiens, HCT-116, 36 h) was 0.72 µM.

In the case of `CC(C(=O)Nc1cc(C(=O)Nc2nnc(-c3ccccc3)s2)ccc1OC(F)(F)F)N1CCOCC1` (stereo not drawn) [Example 242, 3-{[2-(morpholin-4-yl)propanoyl]amino}-N-(5-phenyl-1,3,4-thiadiazol-2-yl)-4-(trifluoromethoxy)benzamide], the IC50 [2] is reported as ≥ 50 µM.
